One series addresses Prothrombin (Homo sapiens, UniProt P00734). Kind of series: Inhibition of thrombin (unknown origin) using S-2238 as substrate after 15 mins by spectrophotometry.
For the next series, the target named is Coagulation factor X (Homo sapiens, UniProt P00742). Kind of series: Inhibition of factor 10a (unknown origin) using S-2222 as substrate after 15 mins by spectrophotometry.
A short description of series [1]: Metabolic stability in human plasma assessed as compound remaining at […] after 4 hrs by HPLC analysis. In kind it is ADME, cell-free. Conditions: read-out: Stability.
Another series deals with Trypsin (Homo sapiens, UniProt P07477+P07478+P35030). Kind of series: Inhibition of trypsin (unknown origin) using S-2222 as substrate after 15 mins by spectrophotometry. It is filed as protein assay.

Some results are limits rather than exact numbers.

Coagulation factor X, sequence (P00742 41-179 limits assumed): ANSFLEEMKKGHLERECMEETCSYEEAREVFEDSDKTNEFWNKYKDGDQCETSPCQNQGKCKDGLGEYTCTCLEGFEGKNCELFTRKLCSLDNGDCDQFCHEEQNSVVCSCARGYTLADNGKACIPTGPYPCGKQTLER
Coagulation factor X, sequence (P00742 235-488 limits assumed): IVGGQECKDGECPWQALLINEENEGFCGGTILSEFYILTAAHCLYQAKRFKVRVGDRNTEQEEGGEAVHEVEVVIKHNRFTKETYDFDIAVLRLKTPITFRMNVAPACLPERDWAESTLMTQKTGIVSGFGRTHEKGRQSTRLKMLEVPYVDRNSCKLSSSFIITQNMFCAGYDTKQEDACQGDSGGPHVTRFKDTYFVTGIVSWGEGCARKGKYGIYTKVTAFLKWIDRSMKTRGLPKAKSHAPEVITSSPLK

Broadly, the Ki is a dissociation constant, usually derived from enzyme kinetics or from competition with a known ligand. Low readings indicate a stronger hold on the target, high ones a looser hold on the target. Turning to `CCOC(=O)C1CCN(c2ccc(N3C[C@H](CNC(=O)c4ccc(Cl)s4)OC3=O)cc2)CC1` (mixture of isomers), the Ki on Prothrombin is above 100 µM; at Coagulation factor X, 0.769 µM; on Trypsin, above 100 µM. The remaining at 4 h in series [1] is 95%.

`O=C(NC[C@H]1CN(c2ccc(N3CCC(C(=O)O)CC3)cc2)C(=O)O1)c1ccc(Cl)s1` (mixture of isomers): the Ki at Prothrombin is 16.6 µM; on Coagulation factor X it was 0.0887 µM; on Trypsin it was above 100 µM.

On to `CCOC(=O)C1CCCCN1c1ccc(N2C[C@H](CNC(=O)c3ccc(Cl)s3)OC2=O)cc1` (mixture of isomers), for which the inhibition constant Ki was 0.353 µM at Prothrombin, 0.0622 µM at Coagulation factor X and above 100 µM on Trypsin. The remaining at 4 h in series [1] is 100%.

As to `O=C(NC[C@H]1CN(c2ccc(N3CCCC(C(=O)O)C3)cc2)C(=O)O1)c1ccc(Cl)s1` (mixture of isomers), the figures for the Ki at Prothrombin, at Coagulation factor X and on Trypsin were 17.6 µM, 1.22 µM and above 100 µM, respectively.

Turning to `CCOC(=O)C1CCN(c2ccc(N3C[C@H](CNC(=O)c4ccc(Cl)s4)OC3=O)cc2)C(=O)C1` (mixture of isomers), the results for the Ki at Prothrombin, at Coagulation factor X and on Trypsin were above 100 µM, 0.0219 µM and above 100 µM, respectively.

For the compound `CCOC(=O)C1CCCN(c2ccc(N3C[C@H](CNC(=O)c4ccc(Cl)s4)OC3=O)cc2)C1` (mixture of isomers), the Ki was above 100 µM on Prothrombin, 0.0624 µM at Coagulation factor X and above 100 µM at Trypsin.

For `O=C(NC[C@H]1CN(c2ccc(N3CCC(C(=O)O)CC3=O)cc2)C(=O)O1)c1ccc(Cl)s1` (mixture of isomers), the inhibitory constant (Ki) on Prothrombin was 69.6 µM; on Coagulation factor X, 0.337 µM; on Trypsin, above 100 µM.

(Values after ChEMBL document CHEMBL3132772 (Medchemcomm, 2014).)
